This is an account of results in PubChem BioAssay (NCI).

The structures appear in SMILES notation.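 All cell lines were grown in 96-well plates and treated with compound for 48 hours. GI50 is the concentration that inhibits growth by half. At the TGI there is no net growth.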

Test systems include HS 578T breast; DMS 273 small cell lung; XF 498 CNS; NCI/ADR-RES ovarian; M19-MEL melanoma; DLD-1 colon; MCF7 breast; DMS 114 small cell lung; T-47D breast.
Common to all, as to experiment: growth of human tumour cells (NCI), 48 h

`CC1CN1C(=O)NCCCCCCNC(=O)N1CC1C` (stereo not given): the TGI with HS 578T breast, in the assay with DMS 273 small cell lung, with XF 498 CNS, in the assay on NCI/ADR-RES ovarian, in the assay with M19-MEL melanoma and in the assay with DLD-1 colon was above 100 µM each time. Besides, the TGI in the assay on MCF7 breast was above 100 µM; in the assay on DMS 114 small cell lung, 98.3 µM; with T-47D breast, above 100 µM.

Take `Cc1cc(Cl)cc2c1NC(=O)C2(O)CC(=O)c1ccco1` (stereo not given): the TGI in the assay with HS 578T breast was above 100 µM; in the assay on DMS 273 small cell lung, above 100 µM; in the assay with XF 498 CNS, above 100 µM; in the assay on NCI/ADR-RES ovarian it was above 100 µM; in the assay with M19-MEL melanoma, 30.9 µM; in the assay with DLD-1 colon, above 100 µM. Moreover, the TGI with DMS 114 small cell lung and with T-47D breast was above 100 µM throughout.

As to `CCOCC(=O)N[C@H]1CCc2cc(OC)c(OC)c(OC)c2-c2ccc(OC)c(=O)cc21`, the TGI in the assay with HS 578T breast is above 100 µM; in the assay on DMS 273 small cell lung it was above 100 µM; in the assay with XF 498 CNS it was above 60 µM; with M19-MEL melanoma it was above 100 µM; in the assay on DLD-1 colon, above 100 µM; in the assay on MCF7 breast it was above 100 µM. The TGI is 0.0289 µM in the assay with DMS 114 small cell lung and above 100 µM with T-47D breast.

In the case of `CCC[CH2][Sn]1([CH2]CCC)[O]C(=O)CN=Cc2c(ccc3ccccc23)[O]1`, the GI50 was 1 µM in the assay on DMS 273 small cell lung; above 100 µM with XF 498 CNS; 0.299 µM with M19-MEL melanoma; 0.811 µM in the assay with DLD-1 colon; 0.139 µM with DMS 114 small cell lung. The TGI is 2.22 µM in the assay with DMS 273 small cell lung; above 100 µM in the assay with XF 498 CNS; 1.23 µM in the assay on M19-MEL melanoma; above 100 µM in the assay with DLD-1 colon; 0.299 µM in the assay with DMS 114 small cell lung.
